Like-named read-outs stand apart in the source and are kept apart here.
Legend:
[1] = test system: porcine rotavirus KJ205 (G5P[7]); test: CPE inhibition effect, porcine rotavirus KJ205 (TF-104 cells treated after virus inoculation); assay type: cell-based; settings: for EC50: TF-104 cells; for selectivity ratio: rhesus monkey, read-out: S.I. (selective index, CC50/EC50)
Procedure: In order to the CPE (cytopathic effect) reduction effects and virucidal effects of the compounds separated from licorice on bovine rotavirus NCDV (G6P[1]) and porcine rotavirus KJ205 […][7]), the following in vitro experiment was performed using the fetal rhesus monkey kidney cell line TF-104. Inhibition %=(O.D) value of sample-treated group-(O.D) value of infected+non-administered control/(O.D) value of non-infected+non-administered control-(O.D) value of infected+non-administered control×100 [Equation 1] In the above equation, the O.D value means the absorbance measured at 540 nm. Meanwhile, in order to examine the inhibitory effects of the compounds separated from licorice on the CPE of bovine rotavirus NCDV (G6P[1]) and porcine rotavirus KJ205 […][7]), […] were washed twice with alpha-MEM containing only an antibiotic, after which the viruses were inoculated into the TF-104 cells and incubated at 37° C. for 1 hour. After 1 hour, the inoculated virus liquids were completely removed, the virus-inoculated TF-104 cells were treated with varying concentrations of the licorice extract and the polyphenolic compounds. Further, the cytopathic effect inhibition (inhibition %) of the compounds separated from licorice were calculated using equation 1 above in the same manner as described above, and the results of the calculation are shown in Table 1 below.

[2] = Cytotoxicity (CC50) in TF-104 cells; assay type: cell-based; settings: rhesus monkey, TF-104 cells (fetal rhesus monkey kidney cell line)
Procedure: In order to the CPE (cytopathic effect) reduction effects and virucidal effects of the compounds separated from licorice on bovine rotavirus NCDV (G6P[1]) and porcine rotavirus KJ205 […][7]), the following in vitro experiment was performed using the fetal rhesus monkey kidney cell line TF-104. First, TF-104 cells were added to a 96-well microplate at a density of 4×10^4 cells/well and cultured with alpha-MEM medium (penicillin 100 units, […], 5% FBS). When the TF-104 cells formed a monolayer, the cells were washed twice with alpha-MEM containing only an antibiotic. Each of NCDV and KJ205 was diluted to an MOI of 0.01 and placed in EP tubes. Each of the licorice extract and the polyphenolic compounds, diluted with dimethylsulfoxide (DMSO), was placed in each of the tubes at varying concentrations and then allowed to react at 4° C. for 1 hour. After 1 hour, the reaction material was inoculated into the washed TF-104 cells in such a manner that one sample concentration was inoculated into 3 wells (hereinafter referred to as “sample-treated groups”). Meanwhile, a non-infected+non-administered control (cell group not infected with NCDV or KJ205 and not treated with the compound) and an infected+non-administered control (virus control; a cell group infected with NCDV or KJ205, but not treated with the compound) were allowed to react under the same conditions for 1 hour, and then inoculated into the TF-104 cells, which were then incubated at 37° C. for 1 hours. After 1 hour, the medium was completely removed from the plate, which was then washed once with PBS. Then, […] medium containing 1 mg/mL of trypsin and antibiotic were dispensed into each well of the plate and incubated at 37° C. for 5-6 days. In the case of the infected +non-administered control group, incubation was performed for 5-6 days until the cytopathic effect (CPE) of the virus clearly appeared. […] After 5-6 days of the incubation, in order to examine the viability of the cells, […] solution (Sigma, UK) was added to each well of the place and allowed to react at 37° C. for 2 hours. Then, the medium was removed, […] solution (1% glacial acetic acid, 49% DDW, 50% EtOH) was added to each well, and after 15 minutes, the absorbance at 540 nm was measured. The virucidal effects (inhibition %) of the inventive compounds separated from licorice compared to the non-infected+non-administered control group and the infected+non-administered control group were calculated using the following equation 1, and the results of the calculation are shown in Table 1 below.

[3] = test system: porcine rotavirus KJ205 (G5P[7]); test: Virucidal effect against porcine rotavirus KJ205 (sample pre-reacted with virus, neutral red readout in TF-104 cells); assay type: cell-based; settings: for EC50: TF-104 cells; for virucidal effect, result in words: bovine and/or porcine rotavirus as worded
Procedure: (§1) In order to the CPE (cytopathic effect) reduction effects and virucidal effects of the compounds separated from licorice on bovine rotavirus NCDV (G6P[1]) and porcine rotavirus KJ205 (G5P[7]), the following in vitro experiment was performed using the fetal rhesus monkey kidney cell line TF-104.
First, TF-104 cells were added to a 96-well microplate at a density of 4×10^4 cells/well and cultured with alpha-MEM medium (penicillin 100 units, […], 5% FBS). When the TF-104 cells formed a monolayer, the cells were washed twice with alpha-MEM containing only an antibiotic. Each of NCDV and KJ205 was diluted to an MOI of 0.01 and placed in EP tubes. Each of the licorice extract and the polyphenolic compounds, diluted with dimethylsulfoxide (DMSO), was placed in each of the tubes at varying concentrations and then allowed to react at 4° C. for 1 hour. After 1 hour, the reaction material was inoculated into the washed TF-104 cells in such a manner that one sample concentration was inoculated into 3 wells (hereinafter referred to as “sample-treated groups”). Meanwhile, a non-infected+non-administered control (cell group not infected with NCDV or KJ205 and not treated with the compound) and an infected+non-administered control (virus control; a cell group infected with NCDV or KJ205, but not treated with the compound) were allowed to react under the same conditions for 1 hour, and then inoculated into the TF-104 cells, which were then incubated at 37° C. for 1 hours. After 1 hour, the medium was completely removed from the plate, which was then washed once with PBS. Then, […] medium containing 1 mg/mL of trypsin and antibiotic were dispensed into each well of the plate and incubated at 37° C. for 5-6 days. In the case of the infected +non-administered control group, incubation was performed for 5-6 days until the cytopathic effect (CPE) of the virus clearly appeared. […] After 5-6 days of the incubation, in order to examine the viability of the cells, […] solution (Sigma, UK) was added to each well of the place and allowed to react at 37° C. for 2 hours. Then, the medium was removed, […] solution (1% glacial acetic acid, 49% DDW, 50% EtOH) was added to each well, and after 15 minutes, the absorbance at 540 nm was measured. The virucidal effects (inhibition %) of the inventive compounds separated from licorice compared to the non-infected+non-administered control group and the infected+non-administered control group were calculated using the following equation 1, and the results of the calculation are shown in Table 1 below.
Inhibition %=(O.D) value of sample-treated group−(O.D) value of infected+non-administered control/(O.D) value of non-infected+non-administered control−(O.D) value of infected+non-administered control×100 [Equation 1]
(§2) In the above equation, the O.D value means the absorbance measured at 540 nm.

[4] = test system: bovine rotavirus NCDV (G6P[1]); test: Virucidal effect against bovine rotavirus NCDV (sample pre-reacted with virus, neutral red readout in TF-104 cells); assay type: cell-based
Procedure: as §1
First, TF-104 cells were added to a 96-well microplate at a density of 4×10^4 cells/well and cultured with alpha-MEM medium (penicillin 100 units, […], 5% FBS). When the TF-104 cells formed a monolayer, the cells were washed twice with alpha-MEM containing only an antibiotic. Each of NCDV and KJ205 was diluted to an MOI of 0.01 and placed in EP tubes. […] Then, the medium was removed, […] solution (1% glacial acetic acid, 49% DDW, 50% EtOH) was added to each well, and after 15 minutes, the absorbance at 540 nm was measured. The virucidal effects (inhibition %) of the inventive compounds separated from licorice compared to the non-infected+non-administered control group and the infected+non-administered control group were calculated using the following equation 1, and the results of the calculation are shown in Table 1 below. […]
as §2

[5] = CPE inhibition effect section, KJ205 (G5P[7]), read-out: CC50
[6] = Virucidal effect, KJ205 (G5P[7])

| EC50 [1] [µM] | Compound | selectivity ratio [1] | CC50 [2, 5] [µM] | EC50 [3, 6] [µM] | virucidal effect, result in words [3] | melting point [°C] | EC50 ([4]; Rotavirus A, TF-104 cells, read-out: EC50 (50% concentration from inhibition concentration)) [µM] | selectivity ratio ([4]; rhesus monkey, read-out: S.I. (selective index, CC50/EC50)) | selectivity ratio ([3]; rhesus monkey, Virucidal effect, KJ205 (G5P[7]), read-out: S.I. (selective index, CC50/EC50)) | CC50 ([2]; Virucidal effect section, NCDV (G6P[1]) columns, read-out: CC50 (50% concentration from cytotoxic concentration)) [µM] |
| --- | --- | --- | --- | --- | --- | --- | --- | --- | --- | --- |
| 35.3 | O=C(/C=C/c1ccc(O)cc1)c1ccc(O)cc1O [Compound 1, isoliquiritigenin] | 3.9 | 138 |  |  |  |  |  |  |  |
| 24 | COc1cc(O)ccc1C(=O)/C=C/c1ccc(O)cc1 [Compound 2, 2-methoxyisoliquiritigenin] | 11.7 | 280 |  |  |  |  |  |  |  |
|  | COc1c(CC=C(C)C)c(O)cc2c1CC(c1ccc(O)cc1O)CO2 (stereo not drawn) [Compound 4, glyasperin C] |  |  | 18.7 | selective virucidal effects against porcine rotavirus |  | 26.2 | 1.5 | 2.1 | 39.1 |

| Compound | EC50 [1] [µM] | selectivity ratio [1] | CC50 [2, 5] [µM] | EC50 [3, 6] [µM] | virucidal effect, result in words [3] | melting point [°C] | EC50 ([4]; Rotavirus A, TF-104 cells, read-out: EC50 (50% concentration from inhibition concentration)) [µM] | selectivity ratio ([4]; rhesus monkey, read-out: S.I. (selective index, CC50/EC50)) | selectivity ratio ([3]; rhesus monkey, Virucidal effect, KJ205 (G5P[7]), read-out: S.I. (selective index, CC50/EC50)) | CC50 ([2]; Virucidal effect section, NCDV (G6P[1]) columns, read-out: CC50 (50% concentration from cytotoxic concentration)) [µM] |
| --- | --- | --- | --- | --- | --- | --- | --- | --- | --- | --- |
| COc1c(CC=C(C)C)c(O)cc2oc(-c3ccc(O)cc3O)cc12 [Compound 3, licocoumarone] | 26.1 | 2.3 | 59.6 | 26.1 | good inhibitory activities against bovine and porcine rotaviruses | 183 to 185 |  |  |  |  |

— patent publication US20130041023A1, “Composition for Preventing or Treating Rotavirus Infection Comprising Licorice Extract” (priority 2010, published 2013)
